EP4567037A1, “USE OF PYRROLOPYRIMIDINE COMPOUND IN TREATMENT OF ACUTE GRAFT VERSUS HOST DISEASE” (Chia Tai Tianqing Pharmaceutical Group Co., Ltd., priority 2022, dated 2024)

System: glucocorticoid-resistant acute graft-versus-host disease
Test: Clinical study of tablets of the compound of formula II in subjects with glucocorticoid-resistant acute graft-versus-host disease
Type: in vivo
Method: This study was conducted to evaluate the safety and preliminary efficacy of the compound of formula II for treating acute graft-versus-host disease in a subject resistant to glucocorticoid.
Administration method: orally administered twice a day at fasting, at a dose of 10 mg or 15 mg each time, with 28 consecutive days of administration as one treatment cycle.
Drug: the compound of formula I in 5 mg or 20 mg tablets, with the compound of formula I being shown as its stereoisomer, a compound of formula II: [drawing 4]
• 1) Aged 12-75 years (inclusive), with no gender restriction; • 2) Previously received allogeneic hematopoietic stem cell transplantation (including non-myeloablative, myeloablative, and reduced-intensity conditioning transplantation of bone marrow, peripheral blood stem cells, and umbilical cord blood); • 3) Clinically diagnosed with aGVHD of grade II to grade IV according to MAGIC guidelines; • Resistance to glucocorticoid therapy *, defined as resistance to high-dose systemic glucocorticoid (methylprednisolone at a dose of 1-2 mg/kg/day or prednisone at an equivalent dose of 1.25-2.5 mg/kg/day), taken alone or taken in combination with a calcineurin inhibitor (CNI); • * Subjects meeting any one of the following conditions can be defined as resistant to conventional glucocorticoid therapy, i.e., therapy with methylprednisolone at a dose of ≥ 1 mg/kg/day or therapy with another type of glucocorticoid at an equivalent dose: (1) progression of aGVHD after the glucocorticoid therapy has been administered for 3 days, (2) no amelioration in aGVHD after the glucocorticoid therapy has been administered for 5 days, and (3) incomplete response of aGVHD after the glucocorticoid therapy has been administered for 14 days; • 4) Within 48 h before the start of therapy, neutrophil count (ANC) > 1 × 10^9/L, and platelet count (PLT) ≥ 20×10^9/L; and • 5) Subjects with voluntary participation, signed informed consent, and good compliance.
During the study, the investigator scored aGVHD treatment responses according to Harris 2016 response evaluation criteria.
The evaluation index may be selected from the group consisting of: • Objective response rate (ORR): refers to the percentage of subjects in complete response (CR) or very good partial response (VGPR) or partial response (PR). • Complete response (CR) rate: refers to the percentage of subjects in complete response (CR). • Overall survival (OS): refers to the time from the start of the first administration to death due to any cause. • Duration of response (DOR): for subjects in complete response (CR) or very good partial response (VGPR) or partial response (PR) on day 28, DOR is defined as the time from the date of the first recorded response to the date of the first recorded disease progression or the start of any new systemic therapy for aGVHD. • Event-free survival (EFS): defined as the time from the date of the first administration to the date of relapse/progression of hematologic disease, transplantation failure, or death due to any cause. • Non-relapse mortality (NRM): defined as the time from the date of the first administration to the date of death not related to relapse/progression of hematologic disease. • Incidence of malignancy relapse/progression (MR): defined as the time from the date of the first administration to the date of relapse/progression of hematologic disease.
Twelve evaluable subjects orally took tablets of the compound of formula II twice a day at fasting, at a dose of 10 mg each time, with 28 days as one administration cycle. The ORR of the 12 subjects on D28 was 83.3% (10/12), with 8 achieving CR and 2 achieving VGPR (very good partial response). […] Evaluation of efficacy in patients

[1] = D28, of 12 evaluable subjects, 10 mg twice a day

Compound: N#CC[C@H](C1CCCC1)n1cc(-c2ncnc3[nH]ccc23)c(N)n1 [compound of formula II]
- Tolerability and safety (10 mg twice a day, oral tablets, overall adverse events being controllable): good tolerability and safety
- ORR on D28 (12 evaluable subjects, oral, twice a day at fasting, 10 mg each time, 28-day cycle, Harris 2016 response criteria): 83.3%
- ORR on D28 (responders/evaluable subjects) (12 evaluable subjects, oral, twice a day, 10 mg each time, 28-day cycle): 10/12
- Number of subjects achieving CR [1]: 8
- Number of subjects achieving VGPR (very good partial response) [1]: 2
- Number of patients achieving ORR on D28 (subgroup aGVHD Grade II (6 patients)): 6
- Number of patients achieving ORR on D28 (subgroup aGVHD Grade III (6 patients)): 4
- Number of patients achieving ORR on D28 (subgroup organ affected by aGVHD: Liver (5 patients)): 3
- Number of patients achieving ORR on D28 (subgroup organ affected by aGVHD: Lower digestive tract (5 patients)): 4
- Number of patients achieving ORR on D28 (subgroup organ affected by aGVHD: Skin (8 patients)): 8
- Number of patients achieving ORR on D28 (subgroup organ affected by aGVHD: Upper digestive tract (2 patients)): 2
- Number of patients achieving ORR on D28 (subgroup previous therapy Hormone + CD25 monoclonal antibody (1 patient)): 0
- Number of patients achieving ORR on D28 (subgroup previous therapy Hormone + CNI + MMF (6 patients)): 5
- Number of patients achieving ORR on D28 (subgroup previous therapy Hormone + MTX + CNI + MMF (1 patient)): 1
- Number of patients achieving ORR on D28 (subgroup previous therapy Hormone ± CNI (4 patients)): 4
